From patent EP0390558B1, “Aromatase inhibiting 4(5)-imidazoles” (ORION-YHTYMÄ OY, priority 1989, dated 1990)

These molecules were tested against T1, Human aromatase enzyme (Homo sapiens, UniProt P11511) (assay: In vitro aromatase inhibition assay (3H2O release from 1,2[3H]-androstene-3,17-dione)).
T1 construct: The enzyme preparation was used without further purification; from tissue; host or cells: human placenta, microsomal fraction (100000 x g precipitate)
T1 sequence (P11511 1-503): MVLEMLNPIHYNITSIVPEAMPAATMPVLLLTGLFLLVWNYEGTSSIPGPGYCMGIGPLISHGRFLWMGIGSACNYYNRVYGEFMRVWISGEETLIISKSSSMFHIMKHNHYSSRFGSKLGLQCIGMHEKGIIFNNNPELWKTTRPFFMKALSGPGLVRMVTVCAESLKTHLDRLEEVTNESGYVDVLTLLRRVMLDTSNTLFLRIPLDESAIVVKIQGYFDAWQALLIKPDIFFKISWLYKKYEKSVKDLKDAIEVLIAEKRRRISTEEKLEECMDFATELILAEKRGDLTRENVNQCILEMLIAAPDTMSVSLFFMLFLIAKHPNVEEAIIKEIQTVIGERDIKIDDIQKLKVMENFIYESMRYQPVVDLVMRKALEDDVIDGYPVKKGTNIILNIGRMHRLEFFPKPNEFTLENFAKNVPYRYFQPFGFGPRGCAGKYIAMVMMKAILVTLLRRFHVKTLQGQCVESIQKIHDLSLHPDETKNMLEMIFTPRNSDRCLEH
Format: biochemical

| SMILES | IC50 |
| --- | --- |
| Cc1cc(C)cc(CCCCC(c2ccc(F)cc2)c2c[nH]cn2)c1 (centres unmarked) [Compound 5b, 4-[5-(3,5-dimethylphenyl)-1-(4-fluorophenyl)-pentyl]-1H-imidazole] | 7.5 µM |
| c1ccc(CCC(c2ccccc2)c2cncn2Cc2ccccc2)cc1 (centres unmarked) [Compound 8b, 1-benzyl-5-(1,3-diphenylpropyl)-1H-imidazole] | 30 µM |
| COc1cccc(CCCCC(c2ccc(F)cc2)c2c[nH]cn2)c1 (centres unmarked) [Compound 11b, 4-[1-(4-fluorophenyl)-5-(3-methoxyphenyl)pentyl]-1H-imidazole] | 2.6 µM |
| COc1ccc(CCCCC(c2ccc(F)cc2)c2c[nH]cn2)cc1 (centres unmarked) [Compound 12b, 4-[1-(4-fluorophenyl)-5-(4-methoxyphenyl)pentyl]-1H-imidazole] | 3 µM |
| Cc1cccc(C)c1CCCCC(c1ccc(F)cc1)c1c[nH]cn1 (centres unmarked) [Compound 13b, 4-[1-(4-fluorophenyl)-5-(2,6-dimethylphenyl)-pentyl]-1H-imidazole] | 7.7 µM |
